One assay concerns the target Bub1 (Homo sapiens, UniProt O43683). Briefly: Formation-Assay: phosphorylation status of histone 2A by inhibition of kinase activity of Bub1. The class given is cell-based. The settings on record: 16 h. The procedure, abridged: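 Cells co-treated 16 h with Nocodazole (1 μg/ml) and compound (3 nM–10 μM), then fixed and immunostained for phospho-H2A, read by infrared imaging (800 nm) normalised to cell stain (700 nm). Nocodazole-only set as 100%, untreated cells as 0%.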

For assay [1], the system named is HeLa human cervical tumor cells. Briefly: Proliferation assay (HeLa+Paclitaxel).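 Note: compounds at 0.001-10 µM added 4 h after paclitaxel, 92 h exposure, absorbance normalized to zero-point plate (0%) and untreated cells (100%), IC50 from 4-parameter fit.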 The settings on record: read-out: Biological Assay 3: HeLa + Paclitaxel IC50, 3 nM paclitaxel, crystal violet.
A further assay relates to HeLa. Briefly: Proliferation assay (HeLa cell line).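 Note: crystal violet staining of cell number, scaled between a plate stained before dosing (0%) and cells left untreated (100%), compounds tested at 0.001-10 µM, IC50 via 4-parameter fit.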
For assay [2], the target named is T1, catalytic domain of human Bub1 (amino acids 704-1085) (Homo sapiens, UniProt O43683).
T1 construct: catalytic domain of human Bub1 (amino acids 704-1085); His6 (N); made in house; host or cells: Hi5 insect cells
T1 sequence (O43683 704-1085): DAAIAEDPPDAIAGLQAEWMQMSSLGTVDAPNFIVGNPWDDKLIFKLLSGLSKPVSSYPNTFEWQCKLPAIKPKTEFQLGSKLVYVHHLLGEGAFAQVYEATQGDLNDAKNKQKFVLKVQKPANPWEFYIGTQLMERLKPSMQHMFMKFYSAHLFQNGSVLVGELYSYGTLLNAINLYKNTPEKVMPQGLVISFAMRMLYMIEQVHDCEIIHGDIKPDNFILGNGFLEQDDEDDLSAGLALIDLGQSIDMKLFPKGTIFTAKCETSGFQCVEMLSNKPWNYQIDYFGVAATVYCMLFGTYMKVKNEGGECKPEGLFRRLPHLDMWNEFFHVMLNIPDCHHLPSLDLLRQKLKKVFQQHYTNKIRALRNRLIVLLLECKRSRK
Briefly: Bub1 kinase assay (TR-FRET). The class given is biochemical. The procedure, abridged:
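TR-FRET read-out (Eu-anti-mouse IgG/anti-phosphoserine antibody to streptavidin-XL665 on biotinylated peptide) after EDTA stop and 1 h complex formation at 22° C. Kinase reaction ran 60 min at 22° C with 1:3.4 serial dilutions from 2 mM DMSO stocks. IC50 from 4-parameter logistic fit of normalized inhibition.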

[3] abbreviates: Biological Assay 4.1: H2A Formation IC50, co-treatment with Nocodazole 1 μg/ml.
[4] abbreviates: Homo sapiens, 96 h, read-out: Biological Assay 2: Proliferation assay (HeLa cell line) median IC50.
The mark [5] stands for this setting: 10 μM ATP, read-out: Biological Assay 1: Bub1 kinase assay median IC50.
Where [6] appears, read: Biological Assay 1: Bub1 kinase assay median IC50, 10 μM ATP.
The mark [7] stands for this setting: read-out: Biological Assay 2: Proliferation assay (HeLa cell line) median IC50, 4 days, crystal violet.

“And” between values parts separate entries of the source, which are not always exact repeats. Equal values may be shown once. Where a name gives a salt, the structure may show the parent alone. Read-outs that look alike come from different tables or passages of the source.

Sequence of Bub1 (O43683 whole entry): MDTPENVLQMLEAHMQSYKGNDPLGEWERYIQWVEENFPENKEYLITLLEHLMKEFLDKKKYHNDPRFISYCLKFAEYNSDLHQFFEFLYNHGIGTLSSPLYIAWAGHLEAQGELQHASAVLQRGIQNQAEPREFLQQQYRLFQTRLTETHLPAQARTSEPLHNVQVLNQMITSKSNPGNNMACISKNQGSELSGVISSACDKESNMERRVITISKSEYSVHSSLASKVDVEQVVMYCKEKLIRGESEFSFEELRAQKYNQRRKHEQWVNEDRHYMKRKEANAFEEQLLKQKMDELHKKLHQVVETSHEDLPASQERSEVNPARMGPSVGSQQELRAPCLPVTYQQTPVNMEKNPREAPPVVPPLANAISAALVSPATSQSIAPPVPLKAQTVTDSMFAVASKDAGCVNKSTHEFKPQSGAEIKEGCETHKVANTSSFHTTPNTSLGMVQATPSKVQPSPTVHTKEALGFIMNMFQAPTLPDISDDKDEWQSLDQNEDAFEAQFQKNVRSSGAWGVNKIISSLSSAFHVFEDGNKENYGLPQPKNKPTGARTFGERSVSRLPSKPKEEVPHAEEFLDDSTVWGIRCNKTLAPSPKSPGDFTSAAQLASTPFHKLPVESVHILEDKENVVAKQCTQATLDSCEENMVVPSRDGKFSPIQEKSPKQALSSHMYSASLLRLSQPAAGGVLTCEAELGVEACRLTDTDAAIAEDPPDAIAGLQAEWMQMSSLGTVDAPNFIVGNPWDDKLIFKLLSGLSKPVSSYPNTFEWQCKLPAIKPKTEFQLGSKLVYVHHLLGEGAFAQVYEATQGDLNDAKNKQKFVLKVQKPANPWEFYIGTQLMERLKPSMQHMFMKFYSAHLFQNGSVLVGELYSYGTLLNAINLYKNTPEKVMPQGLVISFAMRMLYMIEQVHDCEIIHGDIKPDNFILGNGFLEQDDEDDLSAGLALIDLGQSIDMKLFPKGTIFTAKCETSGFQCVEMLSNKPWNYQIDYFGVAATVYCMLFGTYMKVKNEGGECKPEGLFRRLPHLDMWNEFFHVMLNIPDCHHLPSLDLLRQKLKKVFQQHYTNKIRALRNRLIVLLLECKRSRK

For `OCCOc1cc(F)c(Cn2nc(-c3nc(CN4CCOCC4)cc(Nc4ccncc4)n3)c3ccccc32)c(F)c1` [Example 2-6-38, 2-[3,5-difluoro-4-({3-[4-(morpholin-4-ylmethyl)-6-(pyridin-4-ylamino)pyrimidin-2-yl]-1H-indazol-1-yl}methyl)phenoxy]ethanol], the IC50 is 2300 nM at Bub1 (setting [3]), 930 nM in assay [1], more than 10000 nM in the assay on HeLa (setting [4]) and 10 nM in assay [2] (setting [5]).

With `CCOc1cc(F)c(Cn2nc(-c3ncc(OCCS(C)(=O)=O)c(Nc4ccncc4)n3)c3ccccc32)c(F)c1` [Example 3-3-1, 2-[1-(4-ethoxy-2,6-difluorobenzyl)-1H-indazol-3-yl]-5-[2-(methylsulfonyl)ethoxy]-N-(pyridin-4-yl)pyrimidin-4-amine, reference compound], the IC50 at Bub1 (setting [3]) stood at 500 nM; in assay [1], 1100 nM; in the assay on HeLa (setting [4]), 4100 nM; in assay [2] (setting [6]), 5.9 nM.

For `CCOc1cc(F)c(Cn2nc(-c3nc4c(c(Nc5ccncc5C)n3)CCC4)c3ccccc32)c(F)c1` [Example 2-14-2, 2-[1-(4-ethoxy-2,6-difluorobenzyl)-1H-indazol-3-yl]-N-(3-methylpyridin-4-yl)-6,7-dihydro-5H-cyclopenta[d]pyrimidin-4-amine], the IC50 at Bub1 (setting [3]) turned out to be 1.6 nM; in assay [1], 120 nM; in the assay with HeLa (setting [4]), 1100 nM; in assay [2] (setting [5]), 8 nM.

With `CCOc1cc(F)c(Cn2nc(-c3ncc(CCN)c(Nc4ccnc(NC(C)=O)c4)n3)c3ccccc32)c(F)c1` [Example 2-9-13, N-[4-({5-(2-aminoethyl)-2-[1-(4-ethoxy-2,6-difluorobenzyl)-1H-indazol-3-yl]pyrimidin-4-yl}amino)pyridin-2-yl]acetamide, salt with hydrochloric acid], the IC50 at Bub1 (setting [3]) amounted to 160 nM; in assay [1], 150 nM; in the assay with HeLa (setting [4]), 1000 nM; in assay [2] (setting [5]) it was 7.1 nM.

On to `CS(=O)(=O)CCCc1cnc(-c2nn(Cc3c(F)cc(OCCO)cc3F)c3ccccc23)nc1Nc1ccncc1` [Example 2-4-2, 2-{3,5-difluoro-4-[(3-{5-[3-(methylsulfonyl)propyl]-4-(pyridin-4-ylamino)pyrimidin-2-yl}-1H-indazol-1-yl)methyl]phenoxy}ethanol], for which the IC50 on Bub1 (setting [3]) was 70 nM; in assay [1] it was 3900 nM; in the assay with HeLa (setting [4]), more than 10000 nM; in assay [2] (setting [6]), 15 nM.

With `CCOc1cc(F)c(Cn2nc(-c3ncc(CC4CNC4)c(Nc4ccnc(C(F)F)c4)n3)c3ccccc32)c(F)c1` [Example 2-9-9, 5-(azetidin-3-ylmethyl)-N-[2-(difluorometh-yl)pyridin-4-yl]-2-[1-(4-ethoxy-2,6-difluorobenzyl)-1H-indazol-3-yl]pyrimidin-4-amine, salt with hydrochloric acid], the IC50 at Bub1 (setting [3]) was 2.7 nM; in assay [1] it was 190 nM; in the assay with HeLa (setting [4]), 2300 nM; in assay [2] (setting [5]), 52 nM.

As for `Cc1cc(Nc2nc(-c3nn(Cc4c(F)cc(OCCO)cc4F)c4ccccc34)nc3c2CCC3)ncn1` [Example 2-4-11, 2-{3,5-difluoro-4-[(3-{4-[(6-methylpyrimidin-4-yl)amino]-6,7-dihydro-5H-cyclopenta[d]pyrimidin-2-yl}-1H-indazol-1-yl)methyl]phenoxy}ethanol], the IC50 at Bub1 (setting [3]) was 1900 nM; in assay [1], 120 nM; with HeLa (setting [4]), more than 10000 nM; in assay [2] (setting [6]), 88 nM.

As to `CCOc1cc(F)c(Cn2nc(-c3nc(CN4CCOCC4)cc(Nc4ccnc(NC(=O)C5CC5)c4)n3)c3ccccc32)c(F)c1` [Example 2-19-11, N-[4-({2-[1-(4-ethoxy-2,6-difluorobenzyl)-1H-indazol-3-yl]-6-(morpholin-4-ylmethyl)pyrimidin-4-yl}amino)pyridin-2-yl]cyclopropanecarboxamide], the IC50 at Bub1 (setting [3]) turned out to be 180 nM; in assay [1], 130 nM; in the assay on HeLa (setting [4]), 1800 nM; in assay [2] (setting [5]), 9.1 nM.

Consider “2-{3,5-difluoro-4-[(3-{5-[2-(methylsulfonyl)ethyl]-4-(eparate-4-ylamino)pyrimidin-2-yl}-1H-indazol-1-yl)methyl]phenoxy}ethanol [Example 2-4-1]”, for which the IC50 was 96 nM on Bub1 (co-treatment with Nocodazole 1 μg/ml, read-out: Biological Assay 4.1: H2A Formation IC50); 3600 nM in assay [1]; more than 10000 nM in the assay on HeLa (setting [7]); 12 nM in assay [2] (setting [5]).

For the molecule `CCOc1cc(F)c(Cn2nc(-c3nc(CN4CCOCC4)cc(Nc4ccncc4C)n3)c3ccccc32)c(F)c1` [Example 2-12-13, 2-[1-(4-ethoxy-2,6-difluorobenzyl)-1H-indazol-3-yl]-N-(3-methylpyridin-4-yl)-6-(morpholin-4-ylmethyl)pyrimidin-4-amine], the IC50 at Bub1 (setting [3]) stood at 6.6 nM; in assay [1] it was 89 nM; with HeLa (setting [4]), 3400 nM; in assay [2] (setting [5]) it was 6 nM.

Take `Cc1nccc(Nc2nc(-c3nn(Cc4c(F)cc(O)cc4F)c4ccccc34)nc3c2CCC3)n1` [Example 2-6-12, 3,5-difluoro-4-[(3-{4-[(2-methylpyrimidin-4-yl)amino]-6,7-dihydro-5H-cyclopenta[d]pyrimidin-2-yl}-1H-indazol-1-yl)methyl]phenol]: the IC50 was 2300 nM at Bub1 (setting [3]), 2100 nM in assay [1], more than 10000 nM in the assay on HeLa (setting [4]) and 44 nM in assay [2] (setting [6]).

As for `CCOc1cc(F)c(Cn2nc(-c3ncc(C4CCNCC4)c(Nc4ccncc4)n3)c3ccccc32)c(F)c1` [Example 2-9-3, 2-[1-(4-ethoxy-2,6-difluorobenzyl)-1H-indazol-3-yl]-5-(piperidin-4-yl)-N-(pyridin-4-yl)pyrimidin-4-amine, salt with hydrochloric acid], the IC50 on Bub1 (setting [3]) was > 3000 nM and 4900 nM; in assay [1], 240 nM; in the assay on HeLa (setting [7]), 1100 nM; in assay [2] (setting [6]), 5.8 nM.

Consider `CCOc1cc(F)c(Cn2nc(-c3nc(CN4CCOCC4)cc(Nc4ccnnc4)n3)c3ccccc32)c(F)c1` [Example 2-12-35, N-{2-[1-(4-ethoxy-2,6-difluorobenzyl)-1H-indazol-3-yl]-6-(morpholin-4-ylmethyl)pyrimidin-4-yl}pyridazin-4-amine], for which the IC50 on Bub1 (setting [3]) was 14 nM; in assay [1], 590 nM; in the assay on HeLa (setting [4]), 10000 nM; in assay [2] (setting [5]), 17 nM.

Consider `CCOc1cc(F)c(Cn2nc(-c3nc(CN4CCOCC4)cc(Nc4ccncc4Cl)n3)c3ccccc32)c(F)c1` [Example 2-12-34, N-(3-chloropyridin-4-yl)-2-[1-(4-ethoxy-2,6-difluorobenzyl)-1H-indazol-3-yl]-6-(morpholin-4-ylmethyl)pyrimidin-4-amine], for which the IC50 on Bub1 (setting [3]) was 700 nM; in assay [1] it was 500 nM; with HeLa (setting [4]) it was 7800 nM; in assay [2] (setting [5]) it was 36 nM.

As for `CCOc1cc(F)c(Cn2nc(-c3nc4c(c(Nc5ccnc(NC(C)=O)c5)n3)CCC4)c3ccccc32)c(F)c1` [Example 2-12-18, N-[4-({2-[1-(4-ethoxy-2,6-difluorobenzyl)-1H-indazol-3-yl]-6,7-dihydro-5H-cyclopenta[d]pyrimidin-4-yl}amino)pyridin-2-yl]acetamide], the IC50 on Bub1 (setting [3]) was determined as 4.1 nM; in assay [1] it was 250 nM; in the assay on HeLa (setting [4]) it was 2000 nM; in assay [2] (setting [5]) it was 8.4 nM.

Source of the values: patent US20170275270A1, “BENZYL SUBSTITUTED INDAZOLES” (Bayer Pharma Aktiengesellschaft, priority 2014, published 2017).
